Laboratory results published in article PMC12116762, “Topobexin targets the Topoisomerase II ATPase domain for beta isoform-selective inhibition and anthracycline cardioprotection” (Nature Communications, 2025).
Where “and” joins values, the source holds several entries; their conditions need not be identical. Equal entries are not always repeated. Where two headings read alike, the source gives them in different places.

Assays:
[1] = test system: neonatal rat ventricular cardiomyocytes (NVCM); assay: Protection against DAU-induced cytotoxicity (LDH release) in NVCM; format: cell-based; design: key to Suppl.Fig.3 DAU-induced cytotoxicity (LDH release) in NVCM, mean of independent replicates / LDH release (DAU-induced cytotoxicity), mean of independent replicates: % of total LDH activity; conditions: for minimal effective concentration: protection against DAU 1.2 µM, n=4, read-out: LEC = lowest effective concentration; for LDH release: independent replicates
Procedure, shortened: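 Primary neonatal Wistar rat cardiomyocytes in serum- and pyruvate-free DMEM/F12 were pretreated with compound 3 h, then co-incubated 3 h with DAU (1.2 µM), or without DAU for inherent toxicity, then given a 48 h drug-free follow-up. Medium LDH activity (NAD+ reduction at 340 nm) expressed as % of total LDH.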

TOP2B C88Y = molecular target: T1, TOP2B C88Y (Homo sapiens, UniProt Q02880, C93Y); assay: ATPase activity of TOP2B C88Y mutant; format: biochemical
T1 construct: Using recombinant full-length human TOP2A and TOP2B enzymes; YFP (N, cleaved yes); made in house; host or cells: HEK293F
Protocol: The human topoisomerase II decatenation assay was performed to determine the inhibitory effects of BNS-22 and new compounds as previously described with minor modifications[14],[36]. The assay was performed using recombinant human TOP2A or TOP2B generated using the HEK293F YFP-tag expression system as previously described[18],[19],[36]. Briefly, plasmids encoding YFP-TOP2A or YFP-TOP2B were transfected into HEK293F cells (Catalog number 11625019, Thermofisher Scientific), and TOP2 proteins were isolated from cell lysates by anti-YFP nanobody affinity chromatography. After elution by TEV protease cleavage, TOP2 proteins were FPLC purified by sequential cation exchange and size exclusion chromatography. Plasmid encoding TOP2B C88Y was generated by round-the-horn PCR mutagenesis and the sequence was verified by full-plasmid sequencing. Purified TOP2 proteins were stored in a storage buffer containing 20 mM HEPES pH 7.5, 500 mM NaCl, 0.5 mM TCEP, 25% (v/v) glycerol at -80 °C. For decatenation assays, purified TOP2 proteins were incubated with 200 ng kDNA (Topogen) in a reaction buffer containing 50 mM Tris−HCl (pH 8), 100 mM NaCl, 10 mM MgCl2, 0.5 mM DTT, 2 mM ATP, 0.1 mM tris(2-carboxyethyl)phosphine (TCEP), 5% (v/v) glycerol, 70 μg/mL bovine serum albumin, and 1/10 volume of each compound diluted in 10% DMSO (final DMSO concentration 1%) for 40 min at 37 °C. The reaction was then stopped by the addition of gel loading buffer (0.5 volumes of 60% (w/v) glycerol, 60 mM EDTA, 20 mM Tris−HCl (pH 7.5), 0.5 mg/mL bromophenol blue) and the samples were placed on ice. Reaction products were resolved by agarose gel electrophoresis in TBE buffer containing GelRed stain (Biotium). Gels were visualized using an iBright CL1000 (Thermofisher Scientific). Band intensities were quantified using FIJI, and the signal of the treated samples was normalized to the value of the control (untreated sample; 100%) present on the same gel. The normalized signal of three independent measurements was then expressed as mean ± SD. Each presented data point was obtained from distinct sample. Normalized values were plotted as a function of inhibitor concentration to determine IC50 values by nonlinear regression with variable slope using Prism 9 (GraphPad).
Topoisomerase proteins were diluted to 500 nM in storage buffer containing 20 mM HEPES pH 7.5, 500 mM NaCl, 0.5 mM TCEP, 25% glycerol, and 0.2 mg/mL BSA prior to use. A coupled assay was used to measure TOP2-catalyzed ATP hydrolysis in vitro[37] in Costar 96-well plates (Corning Incorporated). […] Reaction plates were pre-warmed to 30 °C for 5 min and ATP was added last to initiate the reaction. The reaction plate was placed in a CLARIOstarPlus plate reader (BMG Labtech) to measure NADH fluorescence at 30 °C every 30 s over 120 cycles using a 340-60 excitation filter and a 480-100 emission filter. Background fluorescence signals calculated from wells containing no ATP were subtracted from each measurement. The slope of NADH fluorescence decay in each well was calculated using the MARS software (BMG Labtech) and reaction wells that lacked topoisomerase inhibitor to account for photobleaching of NADH fluorescence served as background subtraction. Each presented data point was obtained from distinct sample. Values were normalized to untreated controls and plotted as a function of inhibitor concentration to determine IC50 values using Prism 9 (GraphPad).

T1 sequence (Q02880 1-1621 isoform Q02880-2 C88Y): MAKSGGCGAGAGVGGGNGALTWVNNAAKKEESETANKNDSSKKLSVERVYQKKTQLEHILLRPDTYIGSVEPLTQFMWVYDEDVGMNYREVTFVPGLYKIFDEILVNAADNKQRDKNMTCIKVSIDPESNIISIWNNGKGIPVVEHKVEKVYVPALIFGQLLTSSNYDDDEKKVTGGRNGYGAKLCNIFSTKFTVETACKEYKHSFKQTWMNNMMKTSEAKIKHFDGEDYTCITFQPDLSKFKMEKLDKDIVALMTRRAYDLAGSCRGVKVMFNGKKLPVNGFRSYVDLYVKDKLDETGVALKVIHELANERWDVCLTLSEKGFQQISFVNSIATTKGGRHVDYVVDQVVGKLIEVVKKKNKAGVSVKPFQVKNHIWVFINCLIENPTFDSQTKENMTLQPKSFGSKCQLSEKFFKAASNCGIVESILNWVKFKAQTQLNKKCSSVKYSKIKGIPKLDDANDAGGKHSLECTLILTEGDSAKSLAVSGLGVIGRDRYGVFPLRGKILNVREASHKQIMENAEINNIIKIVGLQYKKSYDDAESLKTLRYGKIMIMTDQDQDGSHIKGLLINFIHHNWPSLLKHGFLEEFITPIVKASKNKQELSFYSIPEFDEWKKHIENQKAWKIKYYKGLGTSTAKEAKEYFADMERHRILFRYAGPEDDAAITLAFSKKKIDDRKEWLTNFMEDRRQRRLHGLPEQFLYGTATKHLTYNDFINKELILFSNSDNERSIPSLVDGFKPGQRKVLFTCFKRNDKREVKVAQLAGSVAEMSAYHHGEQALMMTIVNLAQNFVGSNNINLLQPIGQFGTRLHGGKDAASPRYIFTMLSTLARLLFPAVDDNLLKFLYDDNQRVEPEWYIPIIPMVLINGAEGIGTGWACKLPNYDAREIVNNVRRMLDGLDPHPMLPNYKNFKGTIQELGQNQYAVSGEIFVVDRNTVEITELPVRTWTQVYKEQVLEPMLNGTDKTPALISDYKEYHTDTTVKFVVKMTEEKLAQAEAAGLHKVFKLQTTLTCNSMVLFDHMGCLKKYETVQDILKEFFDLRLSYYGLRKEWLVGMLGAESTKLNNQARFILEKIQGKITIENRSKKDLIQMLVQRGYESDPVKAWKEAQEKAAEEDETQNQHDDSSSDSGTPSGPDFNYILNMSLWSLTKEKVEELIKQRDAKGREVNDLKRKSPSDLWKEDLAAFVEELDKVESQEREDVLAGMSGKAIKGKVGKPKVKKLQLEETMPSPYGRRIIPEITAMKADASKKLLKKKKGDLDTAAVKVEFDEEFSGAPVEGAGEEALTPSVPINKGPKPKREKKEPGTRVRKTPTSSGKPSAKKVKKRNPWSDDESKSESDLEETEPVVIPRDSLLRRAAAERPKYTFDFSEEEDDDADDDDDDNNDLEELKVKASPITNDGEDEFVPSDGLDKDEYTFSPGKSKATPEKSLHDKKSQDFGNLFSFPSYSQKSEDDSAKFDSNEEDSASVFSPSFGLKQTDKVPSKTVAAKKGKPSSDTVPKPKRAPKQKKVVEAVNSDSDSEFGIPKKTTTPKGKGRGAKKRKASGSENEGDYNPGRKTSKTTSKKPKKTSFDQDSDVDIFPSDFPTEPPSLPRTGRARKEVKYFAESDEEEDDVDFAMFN

| Structure (SMILES) | LDH release, mean ([1]; compound 0.01 µM + DAU 1.2 µM) | Suppl.Fig.3 DAU-induced cytotoxicity (LDH release) in NVCM, mean of independent replicates ([1]; compound 0.01 µM + DAU 1.2 µM) | LDH release ([1]; compound 0.01 µM + DAU 1.2 µM) | LDH release, mean ([1]; compound 0.1 µM + DAU 1.2 µM) | Suppl.Fig.3 DAU-induced cytotoxicity (LDH release) in NVCM, mean of independent replicates ([1]; compound 0.1 µM + DAU 1.2 µM) | LDH release ([1]; compound 0.1 µM + DAU 1.2 µM) | LDH release, mean ([1]; compound 1 µM + DAU 1.2 µM) | Suppl.Fig.3 DAU-induced cytotoxicity (LDH release) in NVCM, mean of independent replicates ([1]; compound 1 µM + DAU 1.2 µM) | LDH release ([1]; compound 1 µM + DAU 1.2 µM) | LDH release, mean ([1]; compound 10 µM + DAU 1.2 µM) | Suppl.Fig.3 DAU-induced cytotoxicity (LDH release) in NVCM, mean of independent replicates ([1]; compound 10 µM + DAU 1.2 µM) | LDH release ([1]; compound 10 µM + DAU 1.2 µM) | also measured |
| --- | --- | --- | --- | --- | --- | --- | --- | --- | --- | --- | --- | --- | --- |
| CCCc1cc(=O)oc2c(C(=O)N3CCCc4ccccc43)c(OCCO)ccc12 [5c] | 43.3429 % of total LDH | 43.3429 | 38.8043 % of total LDH and 44.6863 % of total LDH and 52.1182 % of total LDH and 37.7626 % of total LDH | 37.9008 % of total LDH | 37.9008 | 31.4509 % of total LDH and 46.2465 % of total LDH and 39.969 % of total LDH and 33.9368 % of total LDH | 32.4872 % of total LDH | 32.4872 | 27.3874 % of total LDH and 32.0086 % of total LDH and 42.6349 % of total LDH and 27.9179 % of total LDH | 26.8851 % of total LDH | 26.8851 | 22.9974 % of total LDH and 24.3605 % of total LDH and 29.85 % of total LDH and 30.3325 % of total LDH | concentration providing significant cardioprotection ([1]; NVCM, DAU 1.2 µM): ≥ 0.1 µM; minimal effective concentration ([1]; Rattus norvegicus, Cardiomyocyte, NVCM): 0.1 µM; LDH release, mean ([1]; compound 30 µM + DAU 1.2 µM): 27.5762 % of total LDH; Suppl.Fig.3 DAU-induced cytotoxicity (LDH release) in NVCM, mean of independent replicates ([1]; compound 30 µM + DAU 1.2 µM): 27.5762; LDH release ([1]; compound 30 µM + DAU 1.2 µM): 24.4062 % of total LDH and 28.0233 % of total LDH and 28.184 % of total LDH and 29.6914 % of total LDH; LDH release, mean ([1]; compound 100 µM + DAU 1.2 µM): 31.1384 % of total LDH; Suppl.Fig.3 DAU-induced cytotoxicity (LDH release) in NVCM, mean of independent replicates ([1]; compound 100 µM + DAU 1.2 µM): 31.1384; LDH release ([1]; compound 100 µM + DAU 1.2 µM): 22.9096 % of total LDH and 39.1124 % of total LDH and 31.4385 % of total LDH and 31.093 % of total LDH |
| CCCc1cc(=O)oc2c(C(=O)N3CCCc4ccccc43)c(OC)cc(OC)c12 [BNS-22] | 38.9374 % of total LDH | 38.9374 | 36.8796 % of total LDH and 42.975 % of total LDH and 39.3894 % of total LDH and 36.5057 % of total LDH | 33.1153 % of total LDH | 33.1153 | 30.1987 % of total LDH and 38.5314 % of total LDH and 34.1236 % of total LDH and 29.6074 % of total LDH | 28.1702 % of total LDH | 28.1702 | 24.6443 % of total LDH and 29.0885 % of total LDH and 32.0729 % of total LDH and 26.875 % of total LDH | 23.9768 % of total LDH | 23.9768 | 25.2929 % of total LDH and 19.0756 % of total LDH and 25.4172 % of total LDH and 26.1213 % of total LDH | IC50 (TOP2B C88Y): 1.55 µM; effect of C88Y mutation in TOP2B on inhibition (TOP2B C88Y; vs TOP2B WT): did not alter inhibition; minimal effective concentration ([1]; NVCM): 1 µM; LDH release, mean ([1]; compound 3 µM + DAU 1.2 µM): 24.9748 % of total LDH; Suppl.Fig.3 DAU-induced cytotoxicity (LDH release) in NVCM, mean of independent replicates ([1]; compound 3 µM + DAU 1.2 µM): 24.9748; LDH release ([1]; compound 3 µM + DAU 1.2 µM): 26.7887 % of total LDH and 18.8271 % of total LDH and 27.1872 % of total LDH and 27.096 % of total LDH |
| COc1cccc2c1C(=O)c1c(O)c3c(c(O)c1C2=O)C[C@@](O)(C(C)=O)C[C@@H]3O[C@H]1C[C@H](N)[C@H](O)[C@H](C)O1 [DAU, daunorubicin, reference compound] |  |  |  |  |  |  |  |  |  |  |  |  | LDH release, mean ([1]; DAU 1.2 µM alone, 48 h): 50.9581 % of total LDH and 40.9598 % of total LDH and 38.3367 % of total LDH; LDH release ([1]; DAU 1.2 µM alone, 48 h): 42.9177 % of total LDH and 49.9715 % of total LDH and 51.9004 % of total LDH and 59.0427 % of total LDH and 48.4333 % of total LDH and 43.9079 % of total LDH and 36.1066 % of total LDH and 35.3914 % of total LDH and 37.5065 % of total LDH and 36.8503 % of total LDH and 39.0464 % of total LDH and 39.9436 % of total LDH; LDH release (DAU-induced cytotoxicity), mean of independent replicates ([1]; DAU 1.2 µM alone, NVCM, Suppl.Fig.6b): 49.0741 and 44.6225 and 40.9598 and 43.4866; LDH release (DAU-induced cytotoxicity), mean of independent replicates ([1]; DAU 1.2 µM alone, NVCM, Suppl.Fig.8a): 50.2853; Suppl.Fig.3 DAU-induced cytotoxicity (LDH release) in NVCM, mean of independent replicates ([1]; DAU 1.2 µM alone, one value per experiment set (compound block)): 52.5555 and 50.9581 and 43.2031 and 52.6717 and 39.8455 and 40.6658 and 38.8384 and 49.4177 and 40.4688 and 38.0883 and 38.3367 and 37.1578 and 50.485 and 47.9698 and 52.8733 and 52.0892 and 42.039 and 50.4287 |
| C[C@@H](CN1CC(=O)NC(=O)C1)N1CC(=O)NC(=O)C1 [dexrazoxane] |  |  |  |  |  |  |  |  |  |  |  |  | concentration needed for similar extent of protection, relative to topobexin (9) ([1]; NVCM): at least 10 ×; LDH release (protection against DAU), mean of independent replicates ([1]; compound 0.1 µM + DAU 1.2 µM, NVCM, Suppl.Fig.8a): 48.0486; LDH release (protection against DAU), mean of independent replicates ([1]; compound 1 µM + DAU 1.2 µM, NVCM, Suppl.Fig.8a): 43.2962; LDH release (protection against DAU), mean of independent replicates ([1]; compound 10 µM + DAU 1.2 µM, NVCM, Suppl.Fig.8a): 41.8711; LDH release (protection against DAU), mean of independent replicates ([1]; compound 100 µM + DAU 1.2 µM, NVCM, Suppl.Fig.8a): 36.8821 |
